Assay results taken from patent publication US20090023646A1, “GHRH analogues” (Centre Hospitalier de L'Universite de Montreal (CHUM), priority 2002, published 2009).
Square brackets hold non-standard residues; d marks the D form. Peptide text beside a SMILES is read from it.

How the values were obtained:
male Beagle dog = assay: In vivo GH secretion after escalating SC injections in a male Beagle dog; settings: AUC not measured
Experimental: The ability of human GHRH analogue #5 (human [D-Ala^2, D-Tyr^10, D-Ala^15, Lys^22] GHRH (1-29)NH2 analogue) to stimulate GH secretion was studied in adult female rats (26-34 weeks at onset of treatment) and in a male Beagle dog.
Human GHRH analogue #5, in 0.9% sodium chloride for injection USP, was administered on days 3, 5 and 8 at dose levels of 0.01, 0.1, and 1 mg/kg body weight, respectively by subcutaneous (SC) injection to an approximately 8-month old male dog as shown in Table 3. On Day 1, the dog received the control (vehicle) article and on Day 11, the animal received the positive control, hGHRH (1-44)NH2 at a dose level of 0.01 mg/kg. Prior to administration, all dosing formulations were filtered using a 0.22 μm filter to ensure sterility. The actual amount of GHRH analogue #5 administered was calculated and adjusted based on the animal's most recent body weight. Dosing started at approximately the same time each day, commencing at 9:00 am±30 minutes. […]
Plasma GH was determined by Linco Diagnostic Services using their own kit. Linco's Porcine/Canine Growth Hormone radioimmunoassay kit (RIA) (PGH-46HK) has been developed to quantitate Growth Hormone in plasma, serum, and tissue culture media. […]

[1] = In vitro proteolysis assay in rat serum; format: in vitro ADME; settings: mean±SEM
Experimental: Proteolysis was stopped by adding 800 μl of ice-cold stop buffer (potassium-phosphate buffer, acidified to pH 0.8 with trifluoroacetic acid (TFA) and boiling 5 min (rat serum only). After centrifugation (12000 g, 5 min, 4° C.) (rat serum only), serum-peptide mixtures were passed through a conditioned Sep-Pak C-18 cartridge to extract native GHRH or a GHRH analogue residual concentrations from serum proteins. The native GHRH or the analogue was eluted in 2 ml of 50% acetonitrile-0.01% TFA/50% 0.01% aqueous TFA. Two hundred μl of extracted peptide, representing 1 μg of GHRH or analogue at time 0, was quantified by analytical HPLC, using one μ-Bondapak C18 column (10 μm particle size, 0.39×15 cm) (rat serum) or two C18 column in series (human serum and plasma) and a binary solvent system composed of NaClO4 0.01 M, pH 2.5 and acetonitrile. A linear gradient from 30 to 60% acetonitrile over 45 min (rat serum) or 30 to 50% (human serum and plasma) was used.

in vitro = settings: male, human, plasma
Experimental: Ten μl of a 300 M solution of hGHRH (1-29)NH2 or of a GHRH analogue was solubilized in dimethylsulfoxide (DMSO) and incubated in one of the following conditions: a—190 μl serum (1/100 dilution in picopure water) from 2-month-old male Sprague Dawley rats, at 37° C. for 0, 8, 15, 30 or 60 min, in polypropylene tubes; b—190 μl of human healthy volunteer plasma (from Human Whole Blood Na EDTA, males, drug free (Algorithme Pharma Inc.); project: MTL-P2-155; Lot: MTLP2155-01, supplied by LAB Dev Int); and c—190 μl of human healthy volunteer pooled serum, Lot: X409 (supplied by LAB Dev Int), at 37° C. for 0, 60, 120, 180 or 420 min, in polypropylene tubes. Proteolysis was stopped by adding 800 μl of ice-cold stop buffer (potassium-phosphate buffer, acidified to pH 0.8 with trifluoroacetic acid (TFA) and boiling 5 min (rat serum only). After centrifugation (12000 g, 5 min, 4° C.) (rat serum only), serum-peptide mixtures were passed through a conditioned Sep-Pak C-18 cartridge to extract native GHRH or a GHRH analogue residual concentrations from serum proteins. The native GHRH or the analogue was eluted in 2 ml of 50% acetonitrile-0.01% TFA/50% 0.01% aqueous TFA. Two hundred μl of extracted peptide, representing 1 μg of GHRH or analogue at time 0, was quantified by analytical HPLC, using one μ-Bondapak C18 column (10 μm particle size, 0.39×15 cm) (rat serum) or two C18 column in series (human serum and plasma) and a binary solvent system composed of NaClO4 0.01 M, pH 2.5 and acetonitrile. A linear gradient from 30 to 60% acetonitrile over 45 min (rat serum) or 30 to 50% (human serum and plasma) was used.
More specifically, the values represent the mean, standard deviation and standard error from the mean of 3 to 7 experiments.

human GHRH receptor = target: T1, human GHRH receptor (Homo sapiens, UniProt Q02643); assay: Competitive 125I-GHRH binding assay in BHK cell membrane preparations expressing the human GHRH receptor
T1 construct: expressed in transfected cells; host or cells: BHK (baby hamster kidney) 570 cells
T1 sequence (Q02643 23-423): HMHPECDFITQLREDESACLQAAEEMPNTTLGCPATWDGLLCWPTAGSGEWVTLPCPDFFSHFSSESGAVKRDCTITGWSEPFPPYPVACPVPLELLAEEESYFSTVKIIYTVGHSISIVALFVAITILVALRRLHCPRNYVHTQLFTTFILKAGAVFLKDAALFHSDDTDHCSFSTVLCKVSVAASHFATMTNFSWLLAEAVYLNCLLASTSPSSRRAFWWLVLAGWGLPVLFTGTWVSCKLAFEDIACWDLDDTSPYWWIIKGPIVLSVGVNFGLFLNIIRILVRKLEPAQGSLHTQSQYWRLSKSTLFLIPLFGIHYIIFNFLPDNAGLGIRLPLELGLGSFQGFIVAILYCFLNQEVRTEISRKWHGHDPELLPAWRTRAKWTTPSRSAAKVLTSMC
Experimental: Non specific binding was determined in presence of 1 μM hGHRH(1-29)NH2. Incubation was carried out at equilibrium (23° C., 60 min) and stopped by centrifugation (12,000 g, 5 min, at 4° C.). The radioactivity content in pellets was determined by gamma counting. The affinity of hGHRH(1-29) NH2 was tested in each experiment to assess the validity of the assay and determine the relative affinity of the analogues.
Values represent the mean±SEM of 3 experiments performed in triplicate for the analogues and the mean±SEM of 2 experiments performed in triplicate for hGHRH(1-44) NH2.
For the binding assay results presented in Tables 8 to 11, values represent the mean±SEM of 8 independent experiments performed in triplicate for the analogues and the mean±SEM of 4 experiments performed in triplicate for hGHRH(1-29)NH2. […] The relative affinity was obtained by taking the ratio IC50 of hGHRH (1-29)-NH2/IC50 analogue.

- Residual concentration ([1]; incubation 0 min): 100 ± 0 % of initial concentration
- remaining at 8 min, 15 µM ([1]; male, Sprague Dawley, diluted 1/100, incubation 8 min, read-out: Residual concentration): 92 ± 5%
- remaining at 0.25 h, 15 µM ([1]; male, Sprague Dawley, diluted 1/100, incubation 15 min, read-out: Residual concentration): 82 ± 6%
- remaining at 0.5 h, 15 µM ([1]; male, Sprague Dawley, diluted 1/100, incubation 30 min, read-out: Residual concentration): 74 ± 7%
- remaining at 1 h, 15 µM ([1]; male, Sprague Dawley, diluted 1/100, incubation 60 min, read-out: Residual concentration): 50 ± 3%
- remaining at 1 h, 15 µM (in vitro; Mean residual amount): 92%
- remaining at 2 h, 15 µM (in vitro; Mean residual amount): 84%
- remaining at 3 h, 15 µM (in vitro; Mean residual amount): 78%
- remaining at 7 h, 15 µM (in vitro; Mean residual amount): 75%
- remaining at 3 h, 15 µM (in vitro; Residual peptide concentration): 74 ± 7%
- IC50 (human GHRH receptor; Table 7, mean±SEM of 3 experiments (analogue) or 2 experiments (hGHRH(1-44)NH2) in triplicate): no significant difference was observed
- Relative binding affinity (R1) in comparison with hGHRH(1-29)NH2 in BHK cells expressing the hGHRH receptor (human GHRH receptor; ratio IC50 of hGHRH(1-29)-NH2/IC50 analogue, mean±SEM): 939 ± 249
Compound: CC[C@H](C)[C@H](NC(=O)[C@H](C)NC(=O)[C@H](CC(=O)O)NC(=O)[C@@H](C)NC(=O)[C@@H](N)Cc1ccc(O)cc1)C(=O)N[C@@H](Cc1ccccc1)C(=O)N[C@H](C(=O)N[C@@H](CC(N)=O)C(=O)N[C@@H](CO)C(=O)N[C@H](Cc1ccc(O)cc1)C(=O)N[C@@H](CCCNC(=N)N)C(=O)N[C@@H](CCCCN)C(=O)N[C@H](C(=O)N[C@@H](CC(C)C)C(=O)N[C@H](C)C(=O)N[C@@H](CCC(N)=O)C(=O)N[C@@H](CC(C)C)C(=O)N[C@@H](CO)C(=O)N[C@@H](C)C(=O)N[C@@H](CCCNC(=N)N)C(=O)N[C@@H](CCCCN)C(=O)N[C@@H](CCCCN)C(=O)N[C@@H](CC(C)C)C(=O)N[C@@H](CCC(N)=O)C(=O)N[C@@H](CC(=O)O)C(=O)N[C@H](C(=O)N[C@@H](CCSC)C(=O)N[C@@H](CO)C(=O)N[C@@H](CCCNC(=N)N)C(N)=O)[C@@H](C)CC)C(C)C)[C@@H](C)O [GHRH analogue #5, [D-Ala^2, D-Tyr^10, D-Ala^15, Lys^22] hGHRH(1-29)-NH2] (H-Y[dA]DAIFTNS[dY]RKVL[dA]QLSARKKLQDIMSR-NH2)
- GH response compared with response to natural hGHRH(1-44)NH2 (male Beagle dog): significantly larger
- Residual concentration ([1]; incubation 60 min): significantly higher than that of either GHRH analogue 1, 2 or 3
